The supplement of paper PMC10307832

Assays:
Assay in all cases: relative viability (nuclei count vs DMSO), 5 days (fraction); higher = more cells survive
Dovitinib + Alpelisib = compound: CN1CCN(c2ccc3nc(-c4c(N)c5c(F)cccc5[nH]c4=O)[nH]c3c2)CC1 [Dovitinib] + Cc1nc(NC(=O)N2CCC[C@H]2C(N)=O)sc1-c1ccnc(C(C)(C)C(F)(F)F)c1 [Alpelisib] (partner 2 µM)
In short: (§1)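 Lung cancer cell lines, seeded in 1536-well plates, were treated the following day by pin tool with a single drug or with five library-drug doses (not always all listed) in √10 steps on top of a fixed anchor-drug dose. Cells were fixed and nuclei stained in one step after 5 days, and nuclei were counted. Relative viability is the nuclei count for treated wells divided by that for vehicle wells, reported as medians of duplicate plates.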

Dovitinib + Linsitinib = compound: CN1CCN(c2ccc3nc(-c4c(N)c5c(F)cccc5[nH]c4=O)[nH]c3c2)CC1 [Dovitinib] + C[C@]1(O)C[C@@H](c2nc(-c3ccc4ccc(-c5ccccc5)nc4c3)c3c(N)nccn32)C1 [Linsitinib] (partner 1 µM)
In short: as §1

Dovitinib + Decitabine = compound: CN1CCN(c2ccc3nc(-c4c(N)c5c(F)cccc5[nH]c4=O)[nH]c3c2)CC1 [Dovitinib] + Nc1ncn([C@H]2C[C@H](O)[C@@H](CO)O2)c(=O)n1 [Decitabine] (partner 2 µM)
In short: as §1

Dovitinib + Pictilisib = compound: CN1CCN(c2ccc3nc(-c4c(N)c5c(F)cccc5[nH]c4=O)[nH]c3c2)CC1 [Dovitinib] + CS(=O)(=O)N1CCN(Cc2cc3nc(-c4cccc5[nH]ncc45)nc(N4CCOCC4)c3s2)CC1 [Pictilisib] (partner 1 µM)
In short: as §1

Cell Line | relative viability (Dovitinib + Alpelisib; first compound 0.02 µM) | relative viability (Dovitinib + Alpelisib; first compound 0.06325 µM) | relative viability (Dovitinib + Alpelisib; first compound 0.2 µM) | relative viability (Dovitinib + Alpelisib; first compound 0.6325 µM) | relative viability (Dovitinib + Alpelisib; first compound 2 µM) | relative viability (Dovitinib + Linsitinib; first compound 0.02 µM) | relative viability (Dovitinib + Linsitinib; first compound 0.06325 µM) | relative viability (Dovitinib + Linsitinib; first compound 0.2 µM) | relative viability (Dovitinib + Linsitinib; first compound 0.6325 µM) | relative viability (Dovitinib + Linsitinib; first compound 2 µM) | relative viability (Dovitinib + Decitabine; first compound 0.02 µM) | relative viability (Dovitinib + Decitabine; first compound 0.06325 µM) | relative viability (Dovitinib + Decitabine; first compound 0.2 µM) | relative viability (Dovitinib + Decitabine; first compound 0.6325 µM) | relative viability (Dovitinib + Decitabine; first compound 2 µM) | relative viability (Dovitinib + Pictilisib; first compound 0.02 µM) | relative viability (Dovitinib + Pictilisib; first compound 0.06325 µM) | relative viability (Dovitinib + Pictilisib; first compound 0.2 µM) | relative viability (Dovitinib + Pictilisib; first compound 0.6325 µM) | relative viability (Dovitinib + Pictilisib; first compound 2 µM)
NCI-H1993 | 0.599 | 0.683 | 0.642 | 0.71 | 0.734 | 0.774 | 0.678 | 0.657 | 0.695 | 0.808 | 0.637 | 0.598 | 0.67 | 0.683 | 0.622 | 0.762 | 0.886 | 0.825 | 0.819 | 0.787
NCI-H1437 | 0.952 | 0.981 | 0.909 | 0.904 | 0.966 | 0.963 | 1.05 | 0.984 | 0.955 | 1.03 | 0.509 | 0.615 | 0.592 | 0.573 | 0.549 | 0.512 | 0.537 | 0.434 | 0.494 | 0.464
UMC-11 | 0.958 | 0.941 | 0.892 | 0.82 | 0.961 | 0.983 | 1.1 | 0.986 | 1.07 | 1.07 | 0.614 | 0.589 | 0.64 | 0.575 | 0.715 | 0.806 | 0.783 | 0.85 | 0.85 | 0.735
201T | 0.979 | 0.975 |  | 1.01 | 0.996 | 0.988 | 0.944 |  | 0.945 | 0.995 | 0.817 | 0.857 | 0.839 | 0.844 | 0.871 | 0.725 | 0.692 |  | 0.702 | 0.658
NCI-H358 | 0.941 | 0.905 | 0.849 | 0.84 | 0.804 | 0.743 | 0.656 | 0.826 | 0.66 | 0.854 | 0.237 | 0.214 | 0.247 | 0.238 | 0.206 | 0.343 | 0.308 | 0.367 | 0.356 | 0.45
LOU-NH91 | 0.818 | 0.73 | 0.714 | 0.75 | 0.765 | 0.984 | 0.915 | 0.968 | 1 | 1.05 | 0.817 | 0.812 | 0.817 | 0.816 | 0.813 | 0.523 | 0.553 | 0.526 | 0.518 | 0.535
HOP-62 | 0.804 | 0.844 | 1.27 | 0.896 | 0.829 | 0.784 | 0.852 | 1.1 | 0.921 | 1.03 | 0.208 | 0.255 | 0.191 | 0.269 | 0.214 | 0.578 | 0.753 | 0.605 | 0.665 | 0.632
NCI-H1915 | 0.992 | 1.04 | 1.06 | 0.983 | 1.04 | 1.09 | 1.09 | 1.08 | 1.09 | 1.05 | 0.26 | 0.258 | 0.246 | 0.251 | 0.284 | 0.877 | 0.893 | 0.912 | 0.891 | 0.961
NCI-H3122 | 0.703 | 0.681 | 0.8 | 0.82 | 0.839 | 1 | 0.95 | 1.07 | 1.1 | 0.991 | 0.493 | 0.431 | 0.447 | 0.48 | 0.374 | 0.793 | 0.588 | 0.47 | 0.603 | 0.66
NCI-H1651 | 0.816 | 1.06 | 0.867 | 0.898 | 0.862 | 1.05 | 0.895 | 0.902 | 0.929 | 0.936 | 0.578 | 0.62 | 0.577 | 0.652 | 0.59 | 0.577 | 0.528 | 0.598 | 0.551 | 0.5
NCI-H838 | 0.949 | 1.04 | 1.01 | 0.936 | 0.938 | 0.97 | 1.05 | 0.999 | 1.01 | 0.977 | 0.458 | 0.452 | 0.529 | 0.495 | 0.46 | 0.458 | 0.431 | 0.499 | 0.466 | 0.503
NCI-H596 | 0.462 | 0.542 | 0.563 | 0.499 | 0.457 | 1.03 | 1.01 | 1.09 | 0.96 | 0.954 | 1.09 | 1.01 | 0.893 | 0.985 | 1.14 | 0.372 | 0.394 | 0.376 | 0.387 | 0.428
SK-LU-1 | 0.928 | 0.946 | 0.951 | 0.805 | 1.16 | 1.1 | 0.999 | 0.966 | 1.07 | 1.06 | 0.614 | 0.636 | 0.662 | 0.758 | 0.572 | 0.64 | 0.657 | 0.513 | 0.73 | 0.576
NCI-H441 | 0.787 | 0.902 | 0.909 | 0.548 | 0.566 | 0.512 | 0.537 | 0.541 | 0.599 | 0.499 | 0.254 | 0.202 | 0.271 | 0.223 | 0.3 | 0.521 | 0.528 | 0.517 | 0.477 | 0.47
NCI-H650 | 1.13 | 0.972 | 1.07 | 0.997 | 1.2 | 0.953 | 0.675 | 0.839 | 0.95 | 1.01 | 0.29 | 0.309 | 0.331 | 0.333 | 0.279 | 0.867 | 0.789 | 0.931 | 0.758 | 1.01
SK-MES-1 | 0.852 | 0.89 | 0.907 | 0.936 | 0.971 | 1.09 | 1.02 | 1.09 | 1.15 | 1.07 | 0.358 | 0.404 | 0.381 | 0.414 | 0.348 | 0.354 | 0.359 | 0.349 | 0.36 | 0.327
